Data published in patent US4180677A, “Novel prostaglandins” (American Cyanamid Company, priority 1977, dated 1979).

Assays:
[1] = tested on: ulcerogenic properties of indomethacin; assay: Protection against indomethacin-induced ulcers (oral gavage); format: in vivo, rat; conditions: rats, indomethacin 20 mg./kg. s.c., score 0 normal to 4 many ulcers
Description: The compounds of this invention provide protection against the ulcerogenic properties of indomethacin. This assay was carried out in the following manner.
Rats were starved for 48 hours (water was given ad libitum). Indomethacin (20 mg./kg. of body weight) was administered by the subcutaneous route and one-half the dose of the test compound was administered by gavage at the same time. After three hours, the second half of the test compound was administered also be gavage. Five hours after the administration of indomethacin the animals were decapitated and the stomachs removed. The stomachs were washed with distilled water, blotted on gauze, cut along the larger curvature, and the contents rinsed with distilled water. The stomachs were spread out, pinned on a cork and visualized under magnifying glass for ulcers. The criteria for scoring of ulcers was as previously reported. [Abdel-Galil et al. Brit. J. Pharmac. Chemotherapy 33:1-14 (1968)].
1-Petechial hemorrhage or pin point ulder
3 Many ulcers, a few large
4-Many ulcers, mainly large
Control animals treated with indomethacin but not test compound consistenly give scores of about 3.0. Control animals treated with neither indomethacin nor test compound gives scores of about 0.5-0.8. Compounds producing a lowering of the control score by 0.5 or more are considered to be active.

[2] = tested on: bronchospasms elicited by 5-hydroxytryptamine; assay: Bronchodilator activity (Konzett assay), spasmogen 5-hydroxytryptamine; format: in vivo, guinea pig; conditions: Cavia porcellus; guinea pigs, spasmogen 5-hydroxytryptamine i.v.; three logarithmic cumulative intravenous doses
Description: (§1) Bronchodilator activity was determined in guinea pigs against bronchospasms elicited by intravenous injections of 5-hydroxytryptamine, histamine or acetylcholine by the Konzett procedure. [See J. Lulling, P. Lievens, F. El Sayed and J. Prignot, Arzneimittel-Forschung, 18, 995 (1968).]
(§2) In the Table which follows bronchodilator activity for representative compounds of this invention against one or more of three spasmogenic agents is expressed as an ED50 determined from the results obtained with three logarithemic cumulative intravenous doses.

[3] = tested on: bronchospasms elicited by histamine; assay: Bronchodilator activity (Konzett assay), spasmogen histamine; format: in vivo, guinea pig; conditions: Cavia porcellus; guinea pigs, spasmogen histamine i.v.; three logarithmic cumulative intravenous doses
Description: as §1, §2

[4] = tested on: bronchospasms elicited by acetylcholine; assay: Bronchodilator activity (Konzett assay), spasmogen acetylcholine; format: in vivo, guinea pig; conditions: Cavia porcellus; guinea pigs, spasmogen acetylcholine i.v.; three logarithmic cumulative intravenous doses
Description: as §1, §2

SMILES | Score, treated (ulcer score) ([1]; total oral dose 12.5 mg./kg. of body weight, control score 2.8) | ED50 [2] | ED50 [3] | ED50 [4] | Score, treated (ulcer score) ([1]; total oral dose 25.0 mg./kg. of body weight, control score 3.0)
O=C(O)CCCCCC[C@H]1C(=O)CC[C@@H]1/C=C/[C@@H](O)CC1CCCC1 (relative stereo) [9-oxo-15-hydroxy-17,20-methano-13-trans-prostenoic acid] | 1.8 | 0.0063 mg/kg | 0.0014 mg/kg | 3.2 mg/kg | 
O=C(O)CCCCCC[C@H]1C(=O)CC[C@@H]1/C=C/[C@H](O)CC1CCCC1 (relative stereo) [9-oxo-15-epi-hydroxy-17,20-methano-13-trans-prostenoic acid] |  | 3.2 mg/kg | 0.206 mg/kg | 3.2 mg/kg | 1.7
